Among the data in patent US7179926B2, “Aryloxyalkylamine NK-1/SSRI inhibitors” (Bristol-Myers Squibb Company, priority 2004, dated 2007) are IC50 values, retold here.

Molecules are shown by their SMILES.

Experiment [1] addresses T1, human serotonin transporters (Homo sapiens, UniProt P31645).
T1 construct: expressed in transfected cells
The experiment in a line: Serotonin transporter binding assay ([3H]-citalopram competition, HEK-hSERT cell membranes). The following applies: 1 nM [3H]-citalopram, 1 hr at 25° C., read-out: SERT IC50. Here is the method: Serotonin transporter binding assay. HEK-293 cells that stably express human serotonin transporters (HEK-hSERT cells) were grown at 37° C. in 5% CO2 as a monolayer in medium consisting of EMEM supplemented with 10% fetal bovine serum and G418 sulfate (500 μg/ml). To prepare membranes for radioligand binding experiments, cells were rinsed twice with phosphate-buffered saline (138 mM NaCl, 4.1 mM KCl, 5.1 mM Na2PO4, 1.5 mM KH2PO4, 11.1 mM glucose, pH 7.4). Cells were transferred from plates to polypropylene tubes (16×100 mm), centrifuged at 1,200×g for 5 min and were frozen at −80° C. until assay. Following centrifugation, pellets were resuspended by homogenization in buffer consisting of 50 mM Tris (pH 7.7 at 25° C.), 120 mM NaCl and 5 mM KCl and then centrifuged at 32,000×g for 10 min. Following centrifugation, supernatants were discarded and pellets were resuspended in buffer consisting of 50 mM Tris (pH 7.4 at 25° C.), 150 mM NaCl and 5 mM KCl. Membrane homogenates (200 μl/plate) were incubated with 1 nM [^3H]-citalopram (specific activity=85 Ci/mmol) and increasing concentrations of test compounds for 1 hr at 25° C. in a total volume of 250 μl. The assay buffer consisted of 50 mM Tris (pH 7.4 at 25° C.), 120 mM NaCl and 5 mM KCl (pH 7.4 with conc. HCl). Plates were incubated for 1 hr at 25° C., then filtered through 0.5% PEI treated Whatman GF/B filters using a Brandel cell harvester. Filters were washed three times with 3 ml of ice-cold tris wash buffer. Non-specific binding was defined with 10 μM fluoxetine. Amount of radioligand bound in the presence and absence of competitor was analyzed by plotting (−)log drug concentration versus the amount of radioligand specifically bound. The midpoint of the displacement curve (IC50, nM), signifies the potency. Ki values can be calculated using the method of Cheng and Prusoff (Cheng and Prusoff, Biochemical Pharmacology, Vol 22, pp. 3099–3108, Pergamon Press (1973)).

Experiment [2] deals with T2, neurokinin-1 (NK-1) receptor (Homo sapiens, UniProt P25103).
T2 construct: endogenously expresses the neurokinin-1 (NK-1) receptor; endogenous in cells; host or cells: U373 human glioblastoma-astrocytoma cells (membranes)
T2 sequence (P25103 whole entry): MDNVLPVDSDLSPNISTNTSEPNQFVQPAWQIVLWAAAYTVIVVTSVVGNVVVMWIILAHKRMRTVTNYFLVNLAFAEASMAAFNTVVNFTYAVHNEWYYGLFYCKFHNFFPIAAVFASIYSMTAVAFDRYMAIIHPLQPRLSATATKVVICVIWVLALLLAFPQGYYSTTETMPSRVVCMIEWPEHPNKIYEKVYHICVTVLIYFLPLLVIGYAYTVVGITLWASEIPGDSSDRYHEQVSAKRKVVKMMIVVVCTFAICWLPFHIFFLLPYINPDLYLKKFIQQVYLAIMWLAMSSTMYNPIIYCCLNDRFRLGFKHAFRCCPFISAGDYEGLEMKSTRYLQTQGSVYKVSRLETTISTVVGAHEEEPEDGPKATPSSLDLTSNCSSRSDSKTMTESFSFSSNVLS
As to the kind of experiment: NK-1 Binding assay ([125I] Substance P competition, U373 cell membranes). The settings on record: Bolton Hunter labeled [125I] Substance P, 30 min at 20° C. As to the method:
NK-1 Binding assay. U373 cells, a human glioblastoma-astrocytoma cell line that endogenously expresses the neurokinin-1 (NK-1) receptor, were grown in a monolayer culture at 37° C. in 5% CO2 and fed with Minimum Essential Medium (MEM) supplemented with 10% fetal bovine serum. Membranes were prepared as follows: Cells were washed twice with ice-cold phosphate-buffered saline (pH 7.4) and then incubated for 5–10 minutes with ice-cold 10 mM Tris buffer (pH 7.4) containing 5 mM EDTA. Cells were removed from plates, homogenized, and centrifuged at 32,000×g for 20 minutes. The resulting supernatant was discarded, and the pellet resuspended by homogenization in 50 mM Tris buffer (pH 7.4) containing 1 mM EDTA and centrifuged at 32,000×g for 20 minutes. The resulting supernatant was discarded, and the pellet resuspended by homogenization in NK-1 binding assay buffer (50 mM Tris-HCL (pH 7.4), 3 mM MnCl2, 200 μg/ml BSA, 5 μg/ml chymostatin, 40 μg/ml bacitracin and 4 μg/ml leupeptin).
On the day of an experiment the membrane preparation was thawed, homogenized and diluted with NK-1 binding assay buffer to the appropriate concentration. Competition binding assays were performed in 96 well plate format by incubating membranes (5–10 μg/well) with Bolton Hunter labeled [^125I] Substance P, at a concentration of […], and concentrations of drugs ranging from 10000 to 0.01 nM. Samples were incubated for 30 min at 20° C. then filtered through GF/B glass fiber filters (pretreated with 1% polyethyleneimine and 0.3% Triton X-100) using a Brandel cell harvester. The filters were then washed with 10 ml ice cold 50 mM Tris-HCL (pH 7.4) containing 3 mM MgCl2. Non-specific was defined in the presence of 2 μM L-733,060 (a non-peptide NK-1 antagonist). The amount of radioligand bound in the presence and absence of competitor was analyzed by plotting (−)log drug concentration versus the amount of radioligand specifically bound. The midpoint of the displacement curve (IC50, nM), signifies the potency. Ki values can be calculated using the method of Cheng and Prusoff (Cheng and Prusoff, Biochemical Pharmacology, Vol 22, pp. 3099–3108, Pergamon Press (1973)).

T1 sequence (P31645 whole entry): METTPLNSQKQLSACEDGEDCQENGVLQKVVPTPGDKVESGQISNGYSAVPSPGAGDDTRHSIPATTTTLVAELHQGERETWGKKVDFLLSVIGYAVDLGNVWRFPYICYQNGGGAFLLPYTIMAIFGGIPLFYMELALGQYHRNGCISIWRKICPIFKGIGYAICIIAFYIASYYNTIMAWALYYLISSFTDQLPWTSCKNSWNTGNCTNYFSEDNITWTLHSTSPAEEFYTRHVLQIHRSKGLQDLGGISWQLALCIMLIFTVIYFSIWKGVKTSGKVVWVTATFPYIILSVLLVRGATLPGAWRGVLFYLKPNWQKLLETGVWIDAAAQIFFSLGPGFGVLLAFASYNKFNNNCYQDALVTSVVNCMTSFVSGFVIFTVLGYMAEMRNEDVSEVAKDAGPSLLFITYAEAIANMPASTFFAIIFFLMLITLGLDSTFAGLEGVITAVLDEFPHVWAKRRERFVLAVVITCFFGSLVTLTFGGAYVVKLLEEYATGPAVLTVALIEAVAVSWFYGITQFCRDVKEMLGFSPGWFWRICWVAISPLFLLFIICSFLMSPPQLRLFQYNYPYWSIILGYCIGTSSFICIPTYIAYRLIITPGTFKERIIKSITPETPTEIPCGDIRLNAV

Turning to `COc1ccc(C(O)(CCN)COCc2cc(C(F)(F)F)cc(C(F)(F)F)c2)c(OC)c1` (centres unmarked) [Example 46, 1-(3,5-bis(trifluoromethyl)benzyloxy)-4-amino-2-(2,4-dimethoxyphenyl)butan-2-ol], the IC50 (usually the midpoint of a concentration-inhibition curve) in experiment [1] was 1 to 100 nM; in experiment [2], over 300 nM.

For `NCCC(O)(COCc1cc(C(F)(F)F)cc(C(F)(F)F)c1)c1ccc(F)cc1` (centres unmarked) [Example 41, 1-(3,5-bis(trifluoromethyl)benzyloxy)-4-amino-2-(4-fluorophenyl)butan-2-ol], the IC50 in experiment [1] and in experiment [2] was 1 to 100 nM throughout.

`NCCC(O)(COCc1ccc(Br)cc1)c1ccccc1` (centres unmarked) [Example 66, 1-(4-bromobenzyloxy)-4-amino-2-phenylbutan-2-ol]: the values for the IC50 in experiment [1] and in experiment [2] were 100 to 300 nM and over 300 nM, respectively.

Consider `CN(C)CCC(COCc1cc(C(F)(F)F)cc(C(F)(F)F)c1)c1ccccc1` (centres unmarked) [Example 73, 1-(3,5-bis(trifluoromethyl)benzyloxy)-4-dimethylamino-2-phenylbutane], for which the IC50 in experiment [1] and in experiment [2] was 1 to 100 nM throughout.

On to `Cc1cccc(COCC(O)(CCN)c2ccccc2)c1` (centres unmarked) [Example 60, 1-(3-methylbenzyloxy)-4-amino-2-phenylbutan-2-ol], for which the IC50 was 1 to 100 nM in experiment [1] and over 300 nM in experiment [2].

In the case of `COc1ccc(C(O)(CCN)COCc2cc(C(F)(F)F)cc(C(F)(F)F)c2)cc1OC` (centres unmarked) [Example 39, 1-(3,5-bis(trifluoromethyl)benzyloxy)-4-amino-2-(3,4-dimethoxyphenyl)butan-2-ol], the IC50 in experiment [1] fell in the range of 1 to 100 nM; in experiment [2] it was 100 to 300 nM.

Consider `NCCC(O)(COCc1cc(C(F)(F)F)cc(C(F)(F)F)c1)c1cccc(Cl)c1` (centres unmarked) [Example 21, 1-(3,5-bis(trifluoromethyl)benzyloxy)-4-amino-2-(3-chlorophenyl)butan-2-ol], for which the IC50 in experiment [1] and in experiment [2] was 1 to 100 nM throughout.

Consider `NCCC(O)(COCc1cc(C(F)(F)F)cc(C(F)(F)F)c1)c1cc(F)cc(Cl)c1` (centres unmarked) [Example 24, 1-(3,5-bis(trifluoromethyl)benzyloxy)-4-amino-2-(3-chloro-5-fluorophenyl)butan-2-ol], for which the figures for the IC50 in experiment [1] and in experiment [2] were 100 to 300 nM and 1 to 100 nM, respectively.

With `NCCC(O)(COCc1ccccc1)c1ccccc1` (centres unmarked) [Example 47, 4-amino-1-(benzyloxy)-2-phenylbutan-2-ol], the IC50 in experiment [1] and in experiment [2] was over 300 nM each time.

In the case of `NCCC(O)(COCc1ccc(F)cc1)c1ccccc1` (centres unmarked) [Example 59, 1-(4-fluorobenzyloxy)-4-amino-2-phenylbutan-2-ol], the IC50 in experiment [1] was 100 to 300 nM; in experiment [2], over 300 nM.

In the case of `CN(C)CC(C)(COCc1cc(C(F)(F)F)cc(C(F)(F)F)c1)c1ccccc1` (centres unmarked) [Example 79, 1-(3,5-bis(trifluoromethyl)benzyloxy)-3-dimethylamino-2-methyl-2-phenylpropane], the IC50 in experiment [1] and in experiment [2] was 1 to 100 nM each time.

Regarding `Cc1cc(Cl)ccc1C(O)(CCN)COCc1cc(C(F)(F)F)cc(C(F)(F)F)c1` (centres unmarked) [Example 40, 1-(3,5-bis(trifluoromethyl)benzyloxy)-4-amino-2-(4-chloro-2-methylphenyl)butan-2-ol], the IC50 in experiment [1] and in experiment [2] was 1 to 100 nM in each case.

As for `Cc1cc(C)cc(C(O)(CCN)COCc2cc(C(F)(F)F)cc(C(F)(F)F)c2)c1` (centres unmarked) [Example 18, 1-(3,5-bis(trifluoromethyl)benzyloxy)-4-amino-2-(3,5-dimethylphenyl)butan-2-ol], the IC50 in experiment [1] and in experiment [2] was 1 to 100 nM throughout.

In the case of `NCCC(O)(COCc1ccccc1C(F)(F)F)c1ccccc1` (centres unmarked) [Example 54, 1-(2-(trifluoromethyl)benzyloxy)-4-amino-2-phenylbutan-2-ol], the IC50 in experiment [1] is 1 to 100 nM; in experiment [2], over 300 nM.

In experiment [2], `NCCC(O)(CNCc1cc(C(F)(F)F)cc(C(F)(F)F)c1)c1ccccc1` (centres unmarked) [Example 81] registered an IC50 of 100 to 300 nM.
